Assay [1] deals with IL-4 stimulated expression of CD23 in human Ramos B cells (JAK-1 and JAK-3). As to the kind of experiment: Assay for Ramos B-Cell Line Stimulated with IL-4 (CD23 upregulation, FACS). It is filed as cell-based. The conditions noted are these: Ramos B-cell line stimulated with IL-4; CD23 expression by FACS; read-out: IC50, Example 41. The method in brief: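 Human Ramos B cells (5×10^4 per point, RPMI 5% serum) pre-incubated 1 h at 37 °C with compound or DMSO, then stimulated with IL-4 at 50 units/mL final for 20-24 h. CD23 upregulation measured by anti-CD23-PE staining and flow cytometry; IC50 derived.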

In assay [2] the test system is up-regulation of ICAM-1 (CD54) by IFNγ in U937 human monocytic cells. As to the kind of experiment: U937 IFNγ ICAM1 FACS Assay. The assay is classed as cell-based. The conditions noted are these: U937 cells stimulated with IFNγ; ICAM-1 expression by FACS; read-out: IC50, Example 44. The method in brief: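 Readout was the geometric-mean APC anti-ICAM-1 signal by FACS on live U937 monocytic cells, with % live cells also recorded. Cells were exposed to compounds (8 points, 3-fold dilutions, duplicates) for 30 min at 37 °C before 18–24 h of IFNγ stimulation. EC50 values were computed from the dose curve.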
(A flow cytometer gives signals particle by particle.)

As a reminder, the IC50 is the midpoint of a concentration-inhibition curve. Consider `Cc1cc(COc2ccc(Nc3nc(Nc4ccc(C)c(S(N)(=O)=O)c4)ncc3F)cc2C)no1` [Compound I-234, N2-(3-Aminosulfonyl-4-methylphenyl)-5-fluoro-N4-[3-methyl-4-(5-methylisoxazol-3-yl)methyleneoxyphenyl]-2,4-pyrimidinediamine], for which the IC50 is 102 nM in assay [1] and 2020 nM in assay [2].

Regarding `CNS(=O)(=O)c1cc(Nc2ncc(F)c(Nc3ccc(OCc4cc(C)on4)cc3)n2)ccc1C` [Compound I-235, 5-Fluoro-N2-[3-(N-methyl)aminosulfonyl-4-methylphenyl]-N4-[4-(5-methylisoxazol-3-yl)methyleneoxyphenyl]-2,4-pyrimidinediamine], the IC50 is 178 nM in assay [1] and 2560 nM in assay [2].

Turning to `Cc1cc(COc2ccc(Nc3nc(Nc4ccc(F)c(S(N)(=O)=O)c4)ncc3F)cc2C)no1` [Compound I-237, N2-(3-Aminosulfonyl-4-fluorophenyl)-5-fluoro-N4-[3methyl-4-(5-methylisoxazol-3-yl)methyleneoxyphenyl]-2,4-pyrimidinediamine], the results for the IC50 in assay [1] and in assay [2] were 147 nM and 3580 nM, respectively.

In the case of `Cc1cc(COc2ccc(Nc3nc(Nc4cccc(S(N)(=O)=O)c4)ncc3F)cc2C)no1` [Compound I-238, N2-(3-Aminosulfonylphenyl)-5-fluoro-N4-[3-methyl-4-(5-methylisoxazol-3-yl)methyleneoxyphenyl]-2,4-pyrimidinediamine], the IC50 in assay [1] stood at 165 nM; in assay [2], 1130 nM.

With `CCN(CC)CCNS(=O)(=O)c1cccc(Nc2ncc(F)c(Nc3ccc(OCc4cc(C)on4)cc3)n2)c1` [Compound I-241, N2-[3-(2-N,N-Diethylaminoethyl)aminosulfonylphenyl)-5-fluoro-N4-[4-(5-methylisoxazol-3-yl)methyleneoxyphenyl]-2,4-pyrimidinediamine], the half-inhibitory concentration (IC50) was 266 nM in assay [1] and 2870 nM in assay [2].

As for `CCN(CC)CCNS(=O)(=O)c1cccc(Nc2ncc(F)c(Nc3ccc(OCc4cc(C)on4)c(C)c3)n2)c1` [Compound I-244, N2-[3-(2-N,N-Diethylaminoethyl)aminosulfonylphenyl)-5-fluoro-N4-[3-methyl-4-(5-methylisoxazol-3-yl)methyleneoxyphenyl]-2,4-pyrimidinediamine], the IC50 is 285 nM in assay [1] and 3120 nM in assay [2].

As for `CCN(CC)CCNS(=O)(=O)c1ccc(Nc2ncc(F)c(Nc3ccc(OCc4cc(C)on4)c(C)c3)n2)cc1` [Compound I-245, N2-[4-(2-N,N-Diethylaminoethyl)aminosulfonylphenyl)-5-fluoro-N4-[3-methyl-4-(5-methylisoxazol-3-yl)methyleneoxyphenyl]-2,4-pyrimidinediamine], the concentration for half-maximal inhibition (IC50) in assay [1] was 202 nM; in assay [2], 4190 nM.

In the case of `CCN(CC)CCNS(=O)(=O)c1ccc(Nc2ncc(F)c(Nc3ccc(OCc4cc(C)on4)cc3)n2)cc1` [Compound I-246, N2-[4-(2-N,N-Diethylaminoethyl)aminosulfonylphenyl)-5-fluoro-N4-[4-(5-methylisoxazol-3-yl)methyleneoxyphenyl]-2,4-pyrimidinediamine], the IC50 turned out to be 106 nM in assay [1] and 873 nM in assay [2].

Turning to `Cc1cc(COc2ccc(Nc3nc(Nc4cccc(S(=O)(=O)N(Cc5oc(=O)oc5C)Cc5oc(=O)oc5C)c4)ncc3F)cc2)no1` [Compound I-248, N2-{3-[N-N-Di-[(5-Methyl-1,3-dioxolene-2-one-4-yl)methylene]]aminosulfonylphenyl}-5-fluoro-N4-[4-(5-methylisoxazol-3-yl)methyleneoxyphenyl]-2,4-pyrimidinediamine], the IC50 in assay [1] stood at 388 nM; in assay [2], 2660 nM.

For the molecule `Cc1noc(COc2cccc(Nc3nc(Nc4cccc(S(N)(=O)=O)c4)ncc3F)c2)n1` [Compound I-252, N2-(3-Aminosulfonylphenyl)-5-fluoro-N4-[3-(3-methyl-1,2,4-oxadiazol-5-yl)methyleneoxyphenyl]-2,4-pyrimidinediamine], the IC50 in assay [1] is 90.6 nM; in assay [2] it was 2470 nM.

Turning to `Cc1noc(COc2cccc(Nc3nc(Nc4ccc(C)c(S(N)(=O)=O)c4)ncc3F)c2)n1` [Compound I-254, N2-(3-Aminosulfonyl-4-methylphenyl)-5-fluoro-N4-[3-(3-methyl-1,2,4-oxadiazol-5-yl)methyleneoxyphenyl]-2,4-pyrimidinediamine], the results for the IC50 in assay [1] and in assay [2] were 155 nM and 1820 nM, respectively.

Take `CNS(=O)(=O)c1cc(Nc2ncc(F)c(Nc3cccc(OCc4nc(C)no4)c3)n2)ccc1C` [Compound I-255, 5-Fluoro-N2-[3-(N-methylaminosulfony)-4-methylphenyl]-N4-[3-(3-methyl-1,2,4-oxadiazol-5-yl)methyleneoxyphenyl]-2,4-pyrimidinediamine]: the 50% inhibitory concentration (IC50) in assay [1] worked out at 256 nM; in assay [2], 5520 nM.

Take `CCN(CC)CCNS(=O)(=O)c1ccc(Nc2ncc(F)c(Nc3cccc(OCc4nc(C)no4)c3)n2)cc1` [Compound I-256, N2-[4-(2-N,N-Diethylaminoethyl)aminosulfonylphenyl)-5-fluoro-N4-[3-(3-methyl-1,2,4-oxadiazol-5-yl)methyleneoxyphenyl]-2,4-pyrimidinediamine]: the results for the half-maximal inhibitory concentration (IC50) in assay [1] and in assay [2] were 282 nM and 15900 nM, respectively.

In the case of `Cc1noc(COc2ccc(Nc3nc(Nc4cccc(S(=O)(=O)NCc5oc(=O)oc5C)c4)ncc3F)cc2)n1` [Compound I-257, N2-{3-[(N-5-Methyl-1,3-dioxolene-2-one-4-yl)methylene]aminosulfonylphenyl}-5-fluoro-N4-[4-(3-methyl-1,2,4-oxadiazol-5-yl)methyleneoxyphenyl]-2,4-pyrimidinediamine], the IC50 in assay [1] came out at 145 nM; in assay [2], 959 nM.

On to `Cc1noc(COc2ccc(Nc3nc(Nc4cccc(S(N)(=O)=O)c4)ncc3F)cc2)n1` [Compound I-258, N2-(3-Aminosulfonylphenyl)-5-fluoro-N4-[4-(3-methyl-1,2,4-oxadiazol-5-yl)methyleneoxyphenyl]-2,4-pyrimidinediamine], for which the IC50 worked out at 28 nM in assay [1] and 324 nM in assay [2].

With `Cc1noc(COc2ccc(Nc3nc(Nc4ccc(C)c(S(N)(=O)=O)c4)ncc3F)cc2)n1` [Compound I-259, N2-(3-Aminosulfonyl-4-methylphenyl)-5-fluoro-N4-[4-(3-methyl-1,2,4-oxadiazol-5-yl)methyleneoxyphenyl]-2,4-pyrimidinediamine], the IC50 in assay [1] came out at 27.9 nM; in assay [2] it was 315 nM.

Consider `CNS(=O)(=O)c1cc(Nc2ncc(F)c(Nc3ccc(OCc4nc(C)no4)cc3)n2)ccc1C` [Compound I-260, 5-Fluoro-N2-[3-N-(methyl)aminosulfonyl-4-methylphenyl)-N4-[4-(3-methyl-1,2,4-oxadiazol-5-yl)methyleneoxyphenyl]-2,4-pyrimidinediamine], for which the values for the 50% inhibitory concentration (IC50) in assay [1] and in assay [2] were 94.8 nM and 985 nM, respectively.

As for `CCN(CC)CCNS(=O)(=O)c1ccc(Nc2ncc(F)c(Nc3ccc(OCc4nc(C)no4)cc3)n2)cc1` [Compound I-263, N2-[4-(2-N,N-Diethylaminoethyl)aminosulfonylphenyl)-5-fluoro-N4-[4-(3-methyl-1,2,4-oxadiazol-5-yl)methyleneoxyphenyl]-2,4-pyrimidinediamine], the IC50 in assay [1] was determined as 124 nM; in assay [2], 665 nM.

Source of the values: patent US11827628B2, “Compositions and methods for inhibition of the JAK pathway” (Rigel Pharmaceuticals, Inc., priority 2005, dated 2023).
